Test results as given in patent publication US8951964B2, “Phenanthridine macrocyclic hepatitis C serine protease inhibitors” (priority 2010, dated 2015).
Like-named read-outs stand apart in the source and are kept apart here.

Key:
Format in all cases: cell-based, HCV
[1] = system: genotype 1a replicon (1a-H77); experiment: 1a stable replicon (luciferase reporter); conditions: HuH-7 cells, 5% FBS
[2] = system: genotype 3a NS3 gene in transient replicon; experiment: 3a transient replicon (luciferase reporter)
[3] = system: genotype 1b replicon (1b-Con1, 1b-N); experiment: 1b stable replicon (luciferase reporter); conditions: HuH-7 cells, 5% FBS
[4] = system: genotype 1b transient replicon; experiment: 1b transient replicon (luciferase reporter); conditions: HuH-7 cells, 5% FBS
[5] = system: genotype 1a transient replicon (1a-H77); experiment: 1a transient replicon (luciferase reporter); conditions: HuH-7 cells, 5% FBS
[6] = Hepatitis C virus, Huh-7, luciferase reporter
[7] = Hepatitis C virus, Huh-7, read-out: 3a transient replicon (nM)

Cc1ccc(C(=O)N[C@H]2CCCCC/C=C\[C@@H]3C[C@@]3(C(=O)NS(=O)(=O)C3(C)CC3)NC(=O)[C@@H]3C[C@@H](Oc4nc5cc(F)ccc5c5ccccc45)CN3C2=O)o1
EC50 [1, 6]: 0.5 to 1 nM
EC50 [2, 7]: < 1 nM
EC50 ([3]; Hepatitis C virus): 0.1 to 0.5 nM
EC50 ([4]; Hepatitis C virus): 0.1 to 0.5 nM
EC50 ([5]; Hepatitis C virus): 0.1 to 0.5 nM

Cc1cc(C(=O)N[C@H]2CCCCC/C=C\[C@@H]3C[C@@]3(C(=O)NS(=O)(=O)C3CC3)NC(=O)[C@@H]3C[C@@H](Oc4nc5ccccc5c5cc(F)ccc45)CN3C2=O)no1
EC50 [1, 6]: 0.1 to 0.5 nM
EC50 [2, 7]: > 1 nM
EC50 ([3]; Hepatitis C virus): 0.1 to 0.5 nM
EC50 ([4]; Hepatitis C virus): 0.1 to 0.5 nM
EC50 ([5]; Hepatitis C virus): < 0.1 nM

Cc1cc(C(=O)N[C@H]2CCCCC/C=C\[C@@H]3C[C@@]3(C(=O)NS(=O)(=O)C3(C)CC3)NC(=O)[C@@H]3C[C@@H](Oc4nc5ccccc5c5cc(F)ccc45)CN3C2=O)no1
EC50 [1, 6]: 0.5 to 1 nM
EC50 [2, 7]: > 1 nM
EC50 ([3]; Hepatitis C virus): 0.1 to 0.5 nM

COc1ccc2c(c1)nc(O[C@@H]1C[C@H]3C(=O)N[C@]4(C(=O)NS(=O)(=O)C5(C)CC5)C[C@H]4/C=C\CCCCC[C@H](NC(=O)c4cc(C)on4)C(=O)N3C1)c1ccccc12
EC50 [1, 6]: 0.1 to 0.5 nM
EC50 [2, 7]: > 1 nM
EC50 ([3]; Hepatitis C virus): 0.1 to 0.5 nM
EC50 ([4]; Hepatitis C virus): 0.1 to 0.5 nM
EC50 ([5]; Hepatitis C virus): < 0.1 nM

Cc1cc(C(=O)N[C@H]2CCCCC/C=C\[C@@H]3C[C@@]3(C(=O)NS(=O)(=O)C3CC3)NC(=O)[C@@H]3C[C@@H](Oc4nc5cc(F)ccc5c5cc(F)ccc45)CN3C2=O)no1
EC50 [1, 6]: 0.1 to 0.5 nM
EC50 [2, 7]: > 1 nM
EC50 ([3]; Hepatitis C virus): 0.1 to 0.5 nM
EC50 ([4]; Hepatitis C virus): 0.1 to 0.5 nM
EC50 ([5]; Hepatitis C virus): 0.1 to 0.5 nM

O=C(N[C@H]1CCCCC/C=C\[C@@H]2C[C@@]2(C(=O)NS(=O)(=O)C2CC2)NC(=O)[C@@H]2C[C@@H](Oc3nc4cc(F)ccc4c4cc(F)ccc34)CN2C1=O)c1cscn1 [drawing 125]
EC50 ([1]; luciferase reporter): > 1 nM
EC50 ([2]; read-out: 3a transient replicon, luciferase reporter, HuH-7 cells, 5% FBS): > 1 nM
EC50 [3]: 0.1 to 0.5 nM
EC50 [4]: 0.1 to 0.5 nM
EC50 [5]: 0.1 to 0.5 nM

Cc1cc(C(=O)N[C@H]2CCCCC/C=C\[C@@H]3C[C@@]3(C(=O)NS(=O)(=O)C3CC3)NC(=O)[C@@H]3C[C@@H](Oc4nc5ccccc5c5cccc(F)c45)CN3C2=O)no1
EC50 [1, 6]: 0.1 to 0.5 nM
EC50 [2, 7]: > 1 nM
EC50 ([3]; Hepatitis C virus): 0.1 to 0.5 nM
EC50 ([4]; Hepatitis C virus): 0.1 to 0.5 nM
EC50 ([5]; Hepatitis C virus): < 0.1 nM

CC1(S(=O)(=O)NC(=O)[C@@]23C[C@H]2/C=C\CCCCC[C@H](NC(=O)c2cscn2)C(=O)N2C[C@H](Oc4nc5cc(F)ccc5c5cc(F)ccc45)C[C@H]2C(=O)N3)CC1
EC50 [1, 6]: 0.5 to 1 nM
EC50 [2, 7]: > 1 nM
EC50 ([3]; Hepatitis C virus): 0.1 to 0.5 nM
EC50 ([4]; Hepatitis C virus): 0.1 to 0.5 nM
EC50 ([5]; Hepatitis C virus): < 0.1 nM

Cn1ccc(C(=O)N[C@H]2CCCCC/C=C\[C@@H]3C[C@@]3(C(=O)NS(=O)(=O)C3CC3)NC(=O)[C@@H]3C[C@@H](Oc4nc5cc(F)ccc5c5cc(F)ccc45)CN3C2=O)n1
EC50 [1, 6]: 0.5 to 1 nM
EC50 ([3]; Hepatitis C virus): < 0.1 nM
EC50 ([4]; Hepatitis C virus): 0.1 to 0.5 nM
EC50 ([5]; Hepatitis C virus): 0.1 to 0.5 nM

Cn1ccc(C(=O)N[C@H]2CCCCC/C=C\[C@@H]3C[C@@]3(C(=O)NS(=O)(=O)C3CC3)NC(=O)[C@@H]3C[C@@H](Oc4nc5cc(F)ccc5c5ccccc45)CN3C2=O)n1
EC50 [1, 6]: 0.1 to 0.5 nM
EC50 ([3]; Hepatitis C virus): < 0.1 nM
EC50 ([4]; Hepatitis C virus): 0.1 to 0.5 nM
EC50 ([5]; Hepatitis C virus): 0.1 to 0.5 nM

COc1ccc2c(c1)c(O[C@@H]1C[C@H]3C(=O)N[C@]4(C(=O)NS(=O)(=O)C5CC5)C[C@H]4/C=C\CCCCC[C@H](NC(=O)c4cc(C)on4)C(=O)N3C1)nc1cc(F)ccc12
EC50 [1, 6]: 0.5 to 1 nM
EC50 [2, 7]: > 1 nM
EC50 ([3]; Hepatitis C virus): 0.5 to 1 nM

COc1ccc2c(c1)nc(O[C@@H]1C[C@H]3C(=O)N[C@]4(C(=O)NS(=O)(=O)C5CC5)C[C@H]4/C=C\CCCCC[C@H](NC(=O)c4cc(C)on4)C(=O)N3C1)c1ccc(F)cc12
EC50 [1, 6]: 0.1 to 0.5 nM
EC50 [2, 7]: > 1 nM
EC50 ([3]; Hepatitis C virus): 0.1 to 0.5 nM

Cn1ccc(C(=O)N[C@H]2CCCCC/C=C\[C@@H]3C[C@@]3(C(=O)NS(=O)(=O)C3CC3)NC(=O)[C@@H]3C[C@@H](Oc4nc5ccccc5c5cccc(F)c45)CN3C2=O)n1
EC50 [1, 6]: 0.5 to 1 nM
EC50 ([3]; Hepatitis C virus): < 0.1 nM
EC50 ([4]; Hepatitis C virus): 0.5 to 1 nM
EC50 ([5]; Hepatitis C virus): 0.1 to 0.5 nM

Cn1ccc(C(=O)N[C@H]2CCCCC/C=C\[C@@H]3C[C@@]3(C(=O)NS(=O)(=O)C3(C)CC3)NC(=O)[C@@H]3C[C@@H](Oc4nc5cc(F)ccc5c5cc(F)ccc45)CN3C2=O)n1
EC50 [1, 6]: 0.1 to 0.5 nM
EC50 ([3]; Hepatitis C virus): < 0.1 nM
EC50 ([4]; Hepatitis C virus): 0.1 to 0.5 nM
EC50 ([5]; Hepatitis C virus): 0.1 to 0.5 nM

Cc1cc(C(=O)N[C@H]2CCCCC/C=C\[C@@H]3C[C@@]3(C(=O)NS(=O)(=O)C3CC3)NC(=O)[C@@H]3C[C@@H](Oc4nc5ccccc5c5cc(OC(F)(F)F)ccc45)CN3C2=O)no1
EC50 [2, 7]: > 1 nM
EC50 ([4]; Hepatitis C virus): 0.1 to 0.5 nM
EC50 ([5]; Hepatitis C virus): < 0.1 nM

Cc1cc(C(=O)N[C@H]2CCCCC/C=C\[C@@H]3C[C@@]3(C(=O)NS(=O)(=O)C3(C)CC3)NC(=O)[C@@H]3C[C@@H](Oc4nc5ccccc5c5ccc(OC(F)(F)F)cc45)CN3C2=O)no1
EC50 [2, 7]: > 1 nM
EC50 ([4]; Hepatitis C virus): 0.1 to 0.5 nM
EC50 ([5]; Hepatitis C virus): < 0.1 nM

Cc1cc(C(=O)N[C@H]2CCCCC/C=C\[C@@H]3C[C@@]3(C(=O)NS(=O)(=O)C3CC3)NC(=O)[C@@H]3C[C@@H](Oc4nc5cc(F)ccc5c5ccccc45)CN3C2=O)no1
EC50 [1, 6]: 0.1 to 0.5 nM
EC50 [2, 7]: > 1 nM
EC50 ([3]; Hepatitis C virus): 0.1 to 0.5 nM

CC1(S(=O)(=O)NC(=O)[C@@]23C[C@H]2/C=C\CCCCC[C@H](NC(=O)c2ccn(C(F)F)n2)C(=O)N2C[C@H](Oc4nc5cc(F)ccc5c5cc(OC(F)(F)F)ccc45)C[C@H]2C(=O)N3)CC1
EC50 [2, 7]: > 1 nM
EC50 ([4]; Hepatitis C virus): 0.1 to 0.5 nM
EC50 ([5]; Hepatitis C virus): 0.1 to 0.5 nM

CC1(S(=O)(=O)NC(=O)[C@@]23C[C@H]2/C=C\CCCCC[C@H](NC(=O)c2cncs2)C(=O)N2C[C@H](Oc4nc5cc(OC(F)(F)F)ccc5c5ccc(F)cc45)C[C@H]2C(=O)N3)CC1
EC50 [2, 7]: > 1 nM
EC50 ([4]; Hepatitis C virus): 0.1 to 0.5 nM
EC50 ([5]; Hepatitis C virus): 0.1 to 0.5 nM

Cn1ccc(C(=O)N[C@H]2CCCCC/C=C\[C@@H]3C[C@@]3(C(=O)NS(=O)(=O)C3CC3)NC(=O)[C@@H]3C[C@@H](Oc4nc5cc(OC(F)(F)F)ccc5c5ccccc45)CN3C2=O)n1
EC50 [1, 6]: < 0.1 nM
EC50 ([3]; Hepatitis C virus): < 0.1 nM
EC50 ([4]; Hepatitis C virus): 0.1 to 0.5 nM
EC50 ([5]; Hepatitis C virus): < 0.1 nM

CC1(S(=O)(=O)NC(=O)[C@@]23C[C@H]2/C=C\CCCCC[C@H](NC(=O)c2ccn(C(F)F)n2)C(=O)N2C[C@H](Oc4nc5cc(F)ccc5c5ccccc45)C[C@H]2C(=O)N3)CC1
EC50 [1, 6]: 0.5 to 1 nM
EC50 ([3]; Hepatitis C virus): 0.1 to 0.5 nM
EC50 ([4]; Hepatitis C virus): 0.1 to 0.5 nM
EC50 ([5]; Hepatitis C virus): 0.1 to 0.5 nM

Cc1cc(C(=O)N[C@H]2CCCCC/C=C\[C@@H]3C[C@@]3(C(=O)NS(=O)(=O)C3(C)CC3)NC(=O)[C@@H]3C[C@@H](Oc4nc5cc(OC(F)(F)F)ccc5c5ccc(F)cc45)CN3C2=O)no1
EC50 [2, 7]: > 1 nM
EC50 ([4]; Hepatitis C virus): 0.1 to 0.5 nM
EC50 ([5]; Hepatitis C virus): 0.1 to 0.5 nM

Cn1ccc(C(=O)N[C@H]2CCCCC/C=C\[C@@H]3C[C@@]3(C(=O)NS(=O)(=O)C3CC3)NC(=O)[C@@H]3C[C@@H](Oc4nc5cccc(F)c5c5ccccc45)CN3C2=O)n1
EC50 [1, 6]: 0.5 to 1 nM
EC50 ([3]; Hepatitis C virus): < 0.1 nM
EC50 ([4]; Hepatitis C virus): 0.1 to 0.5 nM
EC50 ([5]; Hepatitis C virus): 0.5 to 1 nM

Cn1ccc(C(=O)N[C@H]2CCCCC/C=C\[C@@H]3C[C@@]3(C(=O)NS(=O)(=O)C3(C)CC3)NC(=O)[C@@H]3C[C@@H](Oc4nc5ccccc5c5ccc(OC(F)(F)F)cc45)CN3C2=O)n1
EC50 [2, 7]: 0.1 to 0.5 nM
EC50 ([4]; Hepatitis C virus): 0.1 to 0.5 nM
EC50 ([5]; Hepatitis C virus): 0.1 to 0.5 nM

COc1ccc2c(c1)nc(O[C@@H]1C[C@H]3C(=O)N[C@]4(C(=O)NS(=O)(=O)C5(C)CC5)C[C@H]4/C=C\CCCCC[C@H](NC(=O)c4ccn(C(F)F)n4)C(=O)N3C1)c1ccc(F)cc12
EC50 [2, 7]: 0.5 to 1 nM
EC50 ([4]; Hepatitis C virus): 0.1 to 0.5 nM
EC50 ([5]; Hepatitis C virus): 0.1 to 0.5 nM

Cn1ccc(C(=O)N[C@H]2CCCCC/C=C\[C@@H]3C[C@@]3(C(=O)NS(=O)(=O)C3(C)CC3)NC(=O)[C@@H]3C[C@@H](Oc4nc5ccccc5c5cccc(F)c45)CN3C2=O)n1
EC50 [1, 6]: < 0.1 nM
EC50 ([3]; Hepatitis C virus): 0.1 to 0.5 nM
EC50 ([4]; Hepatitis C virus): 0.1 to 0.5 nM
EC50 ([5]; Hepatitis C virus): 0.1 to 0.5 nM

CC1(S(=O)(=O)NC(=O)[C@@]23C[C@H]2/C=C\CCCCC[C@H](NC(=O)c2ccn(C(F)F)n2)C(=O)N2C[C@H](Oc4nc5cc(F)ccc5c5ccc(OC(F)(F)F)cc45)C[C@H]2C(=O)N3)CC1
EC50 [2, 7]: > 1 nM
EC50 ([4]; Hepatitis C virus): 0.1 to 0.5 nM
EC50 ([5]; Hepatitis C virus): 0.1 to 0.5 nM

COc1ccc2c(c1)nc(O[C@@H]1C[C@H]3C(=O)N[C@]4(C(=O)NS(=O)(=O)C5(C)CC5)C[C@H]4/C=C\CCCCC[C@H](NC(=O)c4ccon4)C(=O)N3C1)c1ccc(F)cc12
EC50 [2, 7]: 0.1 to 0.5 nM
EC50 ([4]; Hepatitis C virus): 0.1 to 0.5 nM
EC50 ([5]; Hepatitis C virus): < 0.1 nM
